In patent publication US6875759B1, “Substituted guanidines and the use thereof” (Kadmus Pharmaceuticals, priority 1999, dated 2005):

Columns and labels:
[1] = test system: breast cancer cell line HS578T; test: In vitro cytotoxicity, MTS assay, breast cancer cells; assay type: cell-based, human; conditions: 7 days exposure, dose causing death to 50% of cells, read-out: Cell Survival ED 50 Breast
Method: (§1) In these experiments, cells were seeded at 400 cells per well 24 hours prior to addition of the test compound. Cells were grown at 37° C. in a humidified atmosphere of 95% air, 5% CO2 for 7 days with daily media changes. Cytotoxicity was assessed using the CellTiter 96 Aqueous Proliferation Assay (Promega, Madison, Wis.).

[2] = test system: pancreas cancer cell line HS766T; test: In vitro cytotoxicity, MTS assay, pancreas cancer cells; assay type: cell-based, human; conditions: 7 days exposure, dose causing death to 50% of cells, read-out: Cell Survival ED 50 Pancreas
Method: as §1

[3] = test system: normal human endothelial cells (AH-9); test: In vitro cytotoxicity, MTS assay, normal endothelial cells; assay type: cell-based; conditions: AH-9 normal endothelial cells; separate experiment (FIG. 1); seven days; read-out: EC50 cytotoxic activity
Method: FIG. 1 is a graph which compares the effects of the compound of Example 8 on normal human endothelial cells (AH-9) and human prostate cancer cells (DU145). Cells were exposed to the compound for seven days at the concentrations indicated. Cytotoxicity was assessed using the MTS assay.
In a separate experiment (FIG. 1), normal human endothelial cells (AH-9) and human prostate cancer cells (DU145) were exposed to increasing concentrations of the compound of Example 8 for seven days.

[4] = test system: human prostate (DU14) cancer cells; assay type: in vivo; conditions: daily i.p. for five days
Excerpt: FIG. 2A is a bar graph which depicts the effect of the compound of Example 8 (1-[N,N′-di-p-tolyl)amidino]-4-(trans-1′-cinnamyl)piperizine) on human prostate cancer in BDF/1 mice using the sub-renal capsule assay.
Human cancer cells can be grown in the sub-renal capsule of immuno-competent mice where, for a limited period of time, they escape detection by the mouse's immune system. Thus, the sub-renal capsule assay provides a convenient system to study the effect of drugs on the growth of tumor cells in vivo (Bogden, A. E., et al., Exp. Cell Biol. 47:281 (1979)). Briefly, female BDF mice weighing 18-20g were anesthetized, the left kidney exteriorized and a small nick was made in the kidney capsule for implantation of tumor cells. Approximately 1×10^6 human prostate (DU14) or pancreatic cancer (HS766T) cells were prepared as a fibrinogen-jelled pellet (Stratton, J. A., et al., Gynecol. Oncol. 19:336 (1984); Stratton, J. A., et al., Gynecol. Oncol. 30:416 (1988)) and implanted beneath the renal capsule. […] One day after the final injection, the animals were killed and the tumor volume was measured. Tumor growth was determined by subtracting the initial size of the implant from the size of the implant size following treatment (Stratton, J. A., et al., Gynecol Oncol. 19:336 (1984); Stratton, J. A., et al., Gynecol. Oncol. 30:416 (1988)).

[5] = test system: HS578T breast cancer cells; test: DNA fragmentation, TUNEL assay by flow cytometry; assay type: cell-based, human; conditions: 12.5 or 25 μM for 24 hours
Method: FIGS. 4A-4C illustrate the effects of compound of Example 8 on HS578-T breast carcinoma cells. Cells were exposed to the compound at zero μM (FIG. 4A), 12.5 μM (FIG. 4B) or 25 μM (FIG. 4C) for 24 hours, and the degree of DNA fragmentation measured by flow cytometry using the TUNEL assay.
The TUNEL assay examines DNA fragmentation using flow cytometry to detect DNA that is labeled with fluorescein dUTP compared to the total nuclear DNA content of the cell as measured using propidium iodide. Human HS578T breast cancer cells were treated with either 12.5 or 25 μM of the compound of Example 8 for 24 hours. As cells undergo apoptosis, DNA fragmentation occurs in a relatively intact nucleus, giving rise to a higher fluorescent intensity (x-axis) with stable staining by propidium iodide (y-axis).

[6] = test system: human prostate (DU145) cancer cells; test: Mitochondrial membrane depolarization, JC-1 flow cytometry, prostate cancer cells; assay type: cell-based; conditions: 25 μM, five hours following drug exposure
Method: FIGS. 5D-5F illustrate the effects of compound of Example 8 on human prostate cancer cells (DU145). Mitochondrial membrane depolarization was assessed by flow cytometry as measured by the fluorescence of cation, JC-1. Cells were exposed to 25 μM of the compound and fluorescence measured at: 0 hours (FIG. 5D), 2.5 hours (FIG. 5E) and 4.5 hours (FIG. 5F).
Mitochondrial membrane depolarization is an early event in apoptosis. […] These early changes in mitochondrial function can be detected using a fluorescent cation, JC-1, that emits a red color when sequestered in the mitochondria of healthy cells, or a green color when localized to the cytoplasm.
Human breast (HS578-T) and prostate (DU145) cancer cells were exposed to 25 μM of the compound of Example 8 for varying lengths of times. Both cell lines lost the capacity to sequester JC-1 in the mitochondrial compartment as indicated by a time-dependent increase in green vs. red fluorescence (FIGS. 5A-5F). In an attempt to better quantitate the results of these experiments, the scans were divided into quadrants. At time 0, greater than 90% of the dye was localized in the mitochondria in both breast and prostate cancer cells. By five hours following drug exposure, the mitochondria from the prostate and breast cells contained only 33% and 22% of the dye, respectively.

[7] = Mouse formalin test pain model, late phase; assay type: in vivo
Method: The formalin test was conducted using standard procedures (Hunskaar et al., J. Neurosci. Meth. 14:69-76 (1985). Mice (male CF-1, 20-25 g) were placed in Plexiglass jars for at least 1 hr to accommodate to the environment
The animals received either test drug at 5-50 mg/kg p.o. or the appropriate volume of vehicle (normal saline). Thirty minutes after p.o. dosing mice were injected with formalin (20 μl of 2.5% formaldehyde solution in saline) into the dorsal surface of the right hind paw.
All experiments were done in a blinded manner. The late phase of the formalin response was measured as licking/biting from 10-50 minutes after formalin injection. Differences between groups were analyzed by one-way analysis of variance (ANOVA), A P value ≦0.05 was considered significant. Reduction in the time spent licking/biting in the late phase of the formalin response is considered an indication of a reduction in chronic pain.

SMILES: Cc1ccc(N=C(Nc2ccc(C)cc2)N2CCN(C/C=C/c3ccccc3)CC2)cc1 [Example 8, 1-[(N,N′-Di-p-tolyl)amidino]-(trans-1′-cinnamyl)piperizine]
- EC50 [1]: 2300 nM
- EC50 [2]: 1800 nM
- EC50 [3]: 95 µM
- inhibition of tumor growth ([4]; prostate cancer cell line in mouse sub-renal capsule): greater than 95%
- effect on tumor growth (in words) ([4]; prostate implant, FIG. 2A): dose-dependent and highly significant inhibition of tumor growth
- DNA fragmentation (TUNEL) [5]: pattern of DNA fragmentation characteristic of apoptosis
- JC-1 dye contained in mitochondria [6]: 33%
- late phase pain versus control vehicle (post-hoc Newman-Kuels test) ([7]; 30 mg/kg orally): different from control vehicle at P<0.05
- late phase pain versus control vehicle (post-hoc Newman-Kuels test) ([7]; 50 mg/kg orally): different from control vehicle at P<0.05
- effect on general behavior of the animals ([7]; at the doses effective in the formalin test, p.o.): did not affect the general behavior
- time spent licking, late phase of formalin response (in words) ([7]; oral administration, 5-50 mg/kg, male CF-1 mice): dose-dependent reduction in the time spent licking
